In patent US20210252008A1, “BIARYL COMPOSITIONS AND METHODS FOR MODULATING A KINASE CASCADE” (Athenex, Inc., priority 2004, published 2021):

Assays:
[1] = test system: HT29 cell line (NCI standard human colon carcinoma cell line); experiment: BrdU cell growth inhibition, HT-29; assay type: cell-based; conditions: HT29 cells
Method: (§1) The GI50s for several of the compounds of the invention were assayed as described herein.
The HT29 cell line is a NCI standard human colon carcinoma cell line. […] HT29 cells were routinely cultured in McCoy's 5A medium supplemented with Fetal Bovine Serum (1.5% v/v) and L-glutamine (2 mM).
(§2) In the BrdU Assay for cell growth inhibition, quantitation of cell proliferation was based on the measurement of BrdU incorporation during DNA synthesis. The Cell Proliferation ELISA BrdU assay kit (colorimetric) was obtained from Roche Applied Science and performed as per vendor instructions.
(§3) The growth inhibition (GI) is determined from the formula GI=(T0-Tn×100/T0−CONn) where T0 is the BrdU growth of untreated cells at time “0”, Tn is the BrdU growth of treated cells at day “n” and CONn is the control BrdU growth of control cells at day “n”. The GI50 was extrapolated and the data plotted using XL-Fit 4.0 software.
(§4) For 96 well culture plate experiments, c-Src 3T3 medium was supplemented with 10 mM HEPES buffer. HT-29 cells were seeded in standard tissue culture 96-well plates and c-Src 3T3 cells were seeded in 96-well plates coated with Poly-D-lysine (BIOCOAT™). To increase CO2 diffusion, c-Src 3T3 96-well plates were incubated with their lids raised by 2 mm using sterile rubber caps.
(§5) Seeded 96 well plates were allowed to attach overnight for 18-24 hours, either at 37° C. and 5% CO2 for HT-29 or at 37° C. and 10% CO2 for c-Src 3T3. Approx 18-24 hours after seeding, the initial growth of cells (To) was determined for untreated cells using the BrdU assay. Samples were reconstituted in DMSO at 20 mM and intermediate dilutions made using DMEM containing 10% FBS. The final assay concentrations were 1.5% for FBS and 0.05% for DMSO. Samples were added as 10 μL aliquots in triplicate and plates were incubated as above for 72 hours. Negative (vehicle) and positive controls (e.g., AZ (KX-328)) were included. Plates were assayed for BrdU and the data analyzed as above for GI50. […]

[2] = test system: c-Src 3T3 cells (NIH 3T3 transfected with human c-Src 527F); experiment: BrdU cell growth inhibition, c-Src 3T3; assay type: cell-based, mouse
Method: as §1
The c-Src 3T3 is a mouse fibroblast NIH 3T3 normal cell line that has been transfected with a point-mutant of human c-Src wherein tyrosine 527 has been converted to a phenylalanine. This mutation results in “constitutively active” c-Src because phosphorylation on tyrosine 527 results in auto-inhibition of Src by having it fold back on its own SH2 domain. With a Phe there, this phosphorylation can't occur and therefore auto-inhibition can't occur. Thus, the always fully active mutant Src then converts the normal mouse fibroblasts into rapidly growing tumor cells. Since the hyperactive Src is the main factor driving growth in these cells (particularly when cultured under low growth serum conditions), compounds active in blocking this growth are thought to work by blocking Src signaling (e.g. as a direct Src kinase inhibitor or as an inhibitor acting somewhere else in the Src signaling cascade). The cells were routinely cultured in DMEM supplemented with Fetal Bovine Serum (2.0% v/V), L-glutamine (2 mM) and Sodium Pyruvate (1 mM).
as §2, §3, §4
as §5, with “Negative (vehicle) and positive controls (e.g., AZ (KX-328)) were included.” left out

Row | Compound | GI50 (HT29) [1] | GI50 (c-Src 3T3) [2] | GI50 ([2]; NIH3T3)
1 | O=C(Cc1ccc(-c2ccccc2)c[n+]1[O-])NCc1cccc(F)c1 [KX1-329 N-oxide] | inactive (HT-29) | inactive (c-Src 3T3); | 
2 | CN1CCN(Cc2ccc(-c3ccc(CC(=O)NCc4cccc(F)c4)nc3)cc2)CC1 [KX2-376] |  |  | > 16 nM
3 | CCOc1ccc(-c2ccc(CC(=O)NCc3cccc(F)c3)nc2)c(OCCN2CCN(C)CC2)c1 [KX2-384] | inactive (HT-29) |  | 
4 | CC(C)COc1cc(F)cc(CNC(=O)Cc2ccc(-c3ccc(OCCN4CCCCC4)cc3)cn2)c1 [KX2-386] | inactive (HT-29) |  | 
5 | CC(C)COc1cc(F)cc(CNC(=O)Cc2ccc(-c3ccc(OCCN4CCOCC4)cc3)cn2)c1 [KX2-387] |  | inactive (c-Src 3T3); | 
6 | CCOc1ccc(-c2ccc(CC(=O)NCc3cccc(F)c3)nc2)c(OCCN2CCCCC2)c1 [KX2-389] |  | Inactive (c-Src 3T3); | 
